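Test compounds were applied to cells in 96-well plates for 48 hours at 5 doses. GI50 marks 50% less growth.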 The source made the active and inactive calls. Rule as the data show it: active = GI50 up to about 1.1 µM and inactive = higher.
Tests used:
Assay in all cases: NCI tumour cell line growth inhibition, 48 h
[1] = system: 786-0
[2] = system: A498
[3] = system: A549
[4] = system: ACHN
[5] = system: CAKI-1
[6] = system: CCRF-CEM
[7] = system: COLO 205
[8] = system: DLD-1
[9] = system: DMS-114
[10] = system: DMS-273
[11] = system: EKVX
[12] = system: HCC 2998
[13] = system: HCT-116
[14] = system: HCT-15
[15] = system: HL-60
[16] = system: HOP-18
[17] = system: HOP-62
[18] = system: HOP-92
[19] = system: HT-29
[20] = system: IGROV-1
[21] = system: K562
[22] = system: KM-20L2
[23] = system: KM12
[24] = system: LOX IMVI
[25] = system: LXFL 529
[26] = system: M14
[27] = system: M19-MEL
[28] = system: MOLT-4
[29] = system: Malme-3M
[30] = system: NCI-H226
[31] = system: NCI-H23
[32] = system: NCI-H460
[33] = system: NCI-H522
[34] = system: OVCAR-3
[35] = system: OVCAR-4
[36] = system: OVCAR-5
[37] = system: OVCAR-8
[38] = system: RPMI-8226
[39] = system: RXF 393
[40] = system: SF-295
[41] = system: SF-539
[42] = system: SK-MEL-2
[43] = system: SK-MEL-5
[44] = system: SK-OV-3
[45] = system: SN12C
[46] = system: SNB-19
[47] = system: SNB-75
[48] = system: SNB-78
[49] = system: SR
[50] = system: SW-620
[51] = system: TK-10
[52] = system: U-251
[53] = system: UACC-257
[54] = system: UACC-62
[55] = system: UO-31
[56] = system: XF498
[57] = system: SF-268
[58] = system: SK-MEL-28

`CSc1ccc(OCC2OC2O)cc1` (stereo not drawn) was tested, and the GI50 [1] was 66.4 µM (inactive), the GI50 [2] was 28.1 µM (inactive) and the GI50 [3] was 42.3 µM (inactive). The GI50 [4] was 40.5 µM (inactive), the GI50 [5] was > 50.9 µM (inactive) and the GI50 [6] was 21.7 µM (inactive). The GI50 [7] was 16.5 µM (inactive), the GI50 [8] was 45.7 µM (inactive) and the GI50 [9] was 12.9 µM (inactive). The GI50 [10] was 34.2 µM (inactive), the GI50 [11] was > 93.1 µM (inactive) and the GI50 [12] was > 86.3 µM (inactive). The GI50 [13] was 17.3 µM (inactive), the GI50 [14] was 23.5 µM and the GI50 [15] was 27.3 µM (inactive). The GI50 [16] was > 100 µM (inactive), the GI50 [17] was > 100 µM (inactive) and the GI50 [18] was > 58.2 µM (inactive). The GI50 [19] was 32.3 µM (inactive), the GI50 [20] was > 100 µM (inactive) and the GI50 [21] was 52.8 µM (inactive). For the same compound, the GI50 [22] was 46.2 µM (inactive), the GI50 [23] was 36.2 µM (inactive) and the GI50 [24] was 16.9 µM (inactive). For the same compound, the GI50 [25] was 29 µM (inactive), the GI50 [26] was 49.5 µM (inactive) and the GI50 [27] was 37.7 µM (inactive). For the same compound, the GI50 [28] was 19.4 µM (inactive), the GI50 [29] was 98.2 µM (inactive) and the GI50 [30] was 36.8 µM (inactive). For the same compound, the GI50 [31] was 42.5 µM (inactive), the GI50 [32] was 29.4 µM (inactive) and the GI50 [33] was 23.8 µM (inactive). For the same compound, the GI50 [34] was 30.6 µM (inactive), the GI50 [35] was 30.8 µM (inactive) and the GI50 [36] was > 94.6 µM (inactive). For the same compound, the GI50 [37] was 55.6 µM (inactive), the GI50 [38] was 30.8 µM (inactive) and the GI50 [39] was > 63.7 µM (inactive). The GI50 [40] was 41.1 µM (inactive), the GI50 [41] was 74.8 µM (inactive) and the GI50 [42] was > 77.1 µM (inactive). The GI50 [43] was 16 µM (inactive), the GI50 [44] was > 100 µM (inactive) and the GI50 [45] was 62.2 µM (inactive). For the same compound, the GI50 [46] was > 92.5 µM (inactive), the GI50 [47] was > 65.6 µM (inactive) and the GI50 [48] was > 100 µM (inactive). For the same compound, the GI50 [49] was 45.2 µM (inactive), the GI50 [50] was 18.4 µM (inactive) and the GI50 [51] was > 50 µM (inactive). The GI50 [52] was 28.6 µM (inactive), the GI50 [53] was 41.2 µM (inactive) and the GI50 [54] was 47.9 µM (inactive). For the same compound, the GI50 [55] was 51.6 µM (inactive) and the GI50 [56] was 30.5 µM (inactive).
`O=C1/C(=C/c2ccccc2)CN(C(=O)Oc2ccc(Cl)cc2)C/C1=C\c1ccccc1` was tested, and the GI50 [1] was 1.96 µM (inactive), the GI50 [2] was 2.11 µM (inactive) and the GI50 [3] was 9.33 µM (inactive). For the same compound, the GI50 [4] was 3.03 µM (inactive), the GI50 [6] was 1.55 µM (inactive) and the GI50 [7] was 3.1 µM (inactive). The GI50 [8] was 1.11 µM (active), the GI50 [9] was 1.79 µM (inactive) and the GI50 [10] was 1.83 µM (inactive). For the same compound, the GI50 [11] was 10 µM (inactive), the GI50 [12] was 1.51 µM (inactive) and the GI50 [13] was 0.239 µM (active). The GI50 [14] was 1.17 µM, the GI50 [15] was 0.871 µM (active) and the GI50 [16] was 13.1 µM (inactive). The GI50 [17] was 10 µM (inactive), the GI50 [18] was 21.8 µM (inactive) and the GI50 [19] was 1.14 µM (inactive). The GI50 [20] was 3.05 µM (inactive), the GI50 [21] was 1.76 µM (inactive) and the GI50 [22] was 2.71 µM (inactive). The GI50 [23] was 1.49 µM (inactive), the GI50 [24] was 0.635 µM (active) and the GI50 [25] was 1.72 µM (inactive). The GI50 [26] was 1.53 µM (inactive), the GI50 [27] was 1.12 µM (active) and the GI50 [28] was 2.65 µM (inactive). The GI50 [29] was 11.3 µM (inactive), the GI50 [30] was 5.74 µM (inactive) and the GI50 [31] was 3.22 µM (inactive). The GI50 [32] was 2.44 µM (inactive), the GI50 [33] was 2.25 µM (inactive) and the GI50 [34] was 3.42 µM (inactive). For the same compound, the GI50 [35] was 0.887 µM (active), the GI50 [36] was 10.9 µM (inactive) and the GI50 [37] was 1.65 µM (inactive). The GI50 [38] was 0.0957 µM (active), the GI50 [39] was 2.17 µM (inactive) and the GI50 [57] was 2.99 µM (inactive). The GI50 [40] was 2.23 µM (inactive), the GI50 [41] was 2.36 µM (inactive) and the GI50 [58] was 2.1 µM (inactive). For the same compound, the GI50 [42] was 11.5 µM (inactive), the GI50 [43] was 1.68 µM (inactive) and the GI50 [44] was 7.13 µM (inactive). The GI50 [45] was 1.84 µM (inactive), the GI50 [46] was 3.31 µM (inactive) and the GI50 [47] was 4.24 µM (inactive). For the same compound, the GI50 [48] was 2.96 µM (inactive), the GI50 [49] was 1.32 µM (inactive) and the GI50 [50] was 1.22 µM (inactive). For the same compound, the GI50 [51] was 5.21 µM (inactive), the GI50 [52] was 1.53 µM (inactive) and the GI50 [53] was 1.7 µM (inactive). The GI50 [54] was 2.31 µM (inactive), the GI50 [55] was 4.75 µM (inactive) and the GI50 [56] was 2.29 µM (inactive).
